Reference: ChEMBL document CHEMBL3885861, “Open TG-GATES”

Species on record: Rattus norvegicus
Assay: Open TG-GATES - Regimen: Daily Repeat
Format: toxicity, organism-based, Sprague-Dawley
Design: regimen Daily Repeat, gender Male, age 6 weeks
Settings: in vivo, po, 0 mg/kg, route gavage, dose level Control; for APTT / Bas / Eos / Fbg / Hb / Ht / Lym / MCH / MCHC / MCV / Mono / Neu / PT / Plat / RBC / Ret / WBC: tissue Blood; for KIDNEY_L / KIDNEY_R / KIDNEY_TOTAL: tissue Kidney; for LIVER: tissue Liver; for A/G / ALP / ALT / AST / BUN / CRE / Ca / Cl / DBIL / GLC / IP / K / LDH / Na / PL / RALB / TBIL / TC / TG / TP / gamma-GTP: tissue Plasma

## CC(=O)Nc1ccc2c(c1)Cc1ccccc1-2 [2-ACETYLAMINOFLUORENE]
72 h, time 3 day
  TERMINAL_BW: 245.3 g
  APTT: 19.9 s
  Bas: 1%
  Eos: 1.2%
  Fbg: 227.2 mg/dL
  Hb: 14 g/dL
  Ht: 40.4%
  Lym: 82.2%
  MCH: 21.5 pg
  MCHC: 34.6%
  MCV: 62.3 fL
  Mono: 3%
  Neu: 12.6%
  PT: 11.3 s
  Plat: 127 x10_4/uL
  RBC: 648.4 x10_4/ul
  Ret: 5.8%
  WBC: 105.6 x10_2/uL
  KIDNEY_L: 1.1 g
  KIDNEY_R: 1.1 g
  KIDNEY_TOTAL: 2.2 g
  LIVER: 12.2 g
  A/G: 1.6
  ALP: 913.6 IU/L
  ALT: 38.2 IU/L
  AST: 73.2 IU/L
  BUN: 15.2 mg/dL
  CRE: 0.5 mg/dL
  Ca: 11 mg/dL
  Cl: 101.8 meq/L
  DBIL: 0.1 mg/dL
  GLC: 208.4 mg/dL
  IP: 8 mg/dL
  K: 4.1 meq/L
  LDH: 217.2 IU/L
  Na: 141.2 meq/L
  PL: 163 mg/dL
  RALB: 3.6 g/dL
  TBIL: 0.2 mg/dL
  TC: 81.8 mg/dL
  TG: 104.6 mg/dL
  TP: 5.8 g/dL
  gamma-GTP: 1.2 IU/L
[…], time 7 day
  TERMINAL_BW: 278.1 g
  APTT: 19.7 s
  Bas: 0.4%
  Eos: 1%
  Fbg: 242 mg/dL
  Hb: 14.1 g/dL
  Ht: 39.9%
  Lym: 82.8%
  MCH: 21.9 pg
  MCHC: 35.2%
  MCV: 62.1 fL
  Mono: 2.4%
  Neu: 13%
  PT: 11.7 s
  Plat: 138.4 x10_4/uL
  RBC: 643 x10_4/ul
  Ret: 5.6%
  WBC: 114.7 x10_2/uL
  KIDNEY_L: 1.2 g
  KIDNEY_R: 1.2 g
  KIDNEY_TOTAL: 2.4 g
  LIVER: 12.4 g
  A/G: 1.4
  ALP: 914.8 IU/L
  ALT: 35.8 IU/L
  AST: 65 IU/L
  BUN: 13.6 mg/dL
  CRE: 0.4 mg/dL
  Ca: 10.7 mg/dL
  Cl: 103.2 meq/L
  DBIL: 0.076 mg/dL
  GLC: 201.2 mg/dL
  IP: 7.5 mg/dL
  K: 4.1 meq/L
  LDH: 188 IU/L
  Na: 140.4 meq/L
  PL: 136.4 mg/dL
  RALB: 3.4 g/dL
  TBIL: 0.1 mg/dL
  TC: 64.8 mg/dL
  TG: 96.2 mg/dL
  TP: 5.7 g/dL
  gamma-GTP: 1.4 IU/L
[…], time 14 day
  TERMINAL_BW: 334.5 g
  APTT: 21 s
  Bas: 0.8%
  Eos: 1%
  Fbg: 225.8 mg/dL
  Hb: 14.7 g/dL
  Ht: 42.3%
  Lym: 82.8%
  MCH: 20.5 pg
  MCHC: 34.7%
  MCV: 59 fL
  Mono: 2.2%
  Neu: 12.6%
  PT: 11.8 s
  Plat: 117.3 x10_4/uL
  RBC: 716.4 x10_4/ul
  Ret: 4%
  WBC: 96.8 x10_2/uL
  KIDNEY_L: 1.3 g
  KIDNEY_R: 1.3 g
  KIDNEY_TOTAL: 2.6 g
  LIVER: 14.9 g
  A/G: 1.4
  ALP: 880.2 IU/L
  ALT: 35 IU/L
  AST: 64.4 IU/L
  BUN: 15.4 mg/dL
  CRE: 0.5 mg/dL
  Ca: 10.7 mg/dL
  Cl: 103.4 meq/L
  DBIL: 0.1 mg/dL
  GLC: 196.2 mg/dL
  IP: 7.3 mg/dL
  K: 4.1 meq/L
  LDH: 169.6 IU/L
  Na: 141.6 meq/L
  PL: 143.2 mg/dL
  RALB: 3.5 g/dL
  TBIL: 0.2 mg/dL
  TC: 69.6 mg/dL
  TG: 138 mg/dL
  TP: 5.9 g/dL
  gamma-GTP: 1.2 IU/L
[…], time 28 day
  TERMINAL_BW: 417 g
  APTT: 20.8 s
  Bas: 0.8%
  Eos: 1%
  Fbg: 215.8 mg/dL
  Hb: 14.9 g/dL
  Ht: 43%
  Lym: 82.4%
  MCH: 19.8 pg
  MCHC: 34.7%
  MCV: 57.1 fL
  Mono: 2.2%
  Neu: 13.2%
  PT: 11.6 s
  Plat: 104.4 x10_4/uL
  RBC: 752.2 x10_4/ul
  Ret: 2.6%
  WBC: 122.5 x10_2/uL
  KIDNEY_L: 1.5 g
  KIDNEY_R: 1.5 g
  KIDNEY_TOTAL: 3 g
  LIVER: 16.7 g
  A/G: 1.4
  ALP: 611.4 IU/L
  ALT: 30.8 IU/L
  AST: 61.8 IU/L
  BUN: 19 mg/dL
  CRE: 0.4 mg/dL
  Ca: 10.4 mg/dL
  Cl: 102.4 meq/L
  DBIL: 0.092 mg/dL
  GLC: 265 mg/dL
  IP: 7.2 mg/dL
  K: 3.8 meq/L
  LDH: 194.4 IU/L
  Na: 140.4 meq/L
  PL: 143.4 mg/dL
  RALB: 3.4 g/dL
  TBIL: 0.1 mg/dL
  TC: 69.8 mg/dL
  TG: 107.8 mg/dL
  TP: 5.8 g/dL
  gamma-GTP: 1 IU/L
